Measurements from ChEMBL document CHEMBL1201862, “PubChem BioAssay data set” (2004).
Calls of active or inactive are those of the source.

Columns and labels:
Cytochrome P450 3A4 = Cytochrome P450 3A4 (Homo sapiens, UniProt P08684);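 also: CYP3A4 tested as one member of a cytochrome P450 panel screen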
Cytochrome P450 1A2 = target: T1, Cytochrome P450 1A2 (Homo sapiens, UniProt P05177);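 also: PubChem cytochrome P450 panel assay, CYP1A2 panel member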
T1 sequence (P05177 whole entry): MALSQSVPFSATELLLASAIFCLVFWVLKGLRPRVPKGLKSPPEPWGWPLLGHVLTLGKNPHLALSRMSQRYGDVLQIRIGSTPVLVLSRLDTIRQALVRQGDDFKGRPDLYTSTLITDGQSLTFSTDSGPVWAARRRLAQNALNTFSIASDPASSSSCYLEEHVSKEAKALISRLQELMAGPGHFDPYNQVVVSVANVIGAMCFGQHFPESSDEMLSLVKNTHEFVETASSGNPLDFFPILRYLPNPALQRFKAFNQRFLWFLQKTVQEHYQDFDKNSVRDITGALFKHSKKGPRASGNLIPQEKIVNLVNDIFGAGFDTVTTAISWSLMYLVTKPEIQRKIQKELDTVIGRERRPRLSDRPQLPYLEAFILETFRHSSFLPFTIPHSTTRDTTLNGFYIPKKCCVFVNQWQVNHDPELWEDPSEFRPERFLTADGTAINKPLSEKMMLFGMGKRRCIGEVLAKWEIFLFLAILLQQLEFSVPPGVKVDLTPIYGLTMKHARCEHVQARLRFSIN

Cytochrome P450 2C19 = Cytochrome P450 2C19 (Homo sapiens, UniProt P33261); assay: Cytochrome panel assay with activity outcomes. Panel member name: p450-cyp2c19 Compounds with AC50 equal or less than 10 uM are considered active; assay type: functional
Cytochrome P450 2C19, sequence (P33261 whole entry): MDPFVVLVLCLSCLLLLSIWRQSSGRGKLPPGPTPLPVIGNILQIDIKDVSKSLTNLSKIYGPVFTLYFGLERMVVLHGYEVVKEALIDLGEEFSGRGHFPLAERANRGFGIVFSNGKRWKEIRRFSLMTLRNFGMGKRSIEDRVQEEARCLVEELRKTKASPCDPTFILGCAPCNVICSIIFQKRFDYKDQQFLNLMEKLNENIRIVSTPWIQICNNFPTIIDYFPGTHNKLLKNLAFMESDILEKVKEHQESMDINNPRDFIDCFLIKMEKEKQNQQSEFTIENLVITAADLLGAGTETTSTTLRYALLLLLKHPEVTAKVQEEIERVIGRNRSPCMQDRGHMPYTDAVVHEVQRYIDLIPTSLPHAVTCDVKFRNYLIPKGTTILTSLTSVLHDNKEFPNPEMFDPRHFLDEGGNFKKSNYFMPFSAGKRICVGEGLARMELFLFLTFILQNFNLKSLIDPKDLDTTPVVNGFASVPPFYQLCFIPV

[1] = inhibitors of intracellular T. cruzi replication, confirmation, NIH3T3 host cells, beta-gal luminescence (AID 2044); assay type: functional, cell-based;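 also: intracellular parasites grown in NIH/3T3 mouse fibroblasts as host cells; luminescent beta-galactosidase reporter signal from transgenic T. cruzi replicating inside host cells; inhibitors lower the luminescence signal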
[2] = cytotoxicity toward NIH3T3 fibroblasts, dose response, counter-screen, cell-based, ATP luminescence, mouse fibroblasts (AID 2010); assay type: functional;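 also: cells exposed to compound for about 90 hours before reading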
Cytochrome P450 2C9 = Cytochrome P450 2C9 (Homo sapiens, UniProt P11712)
Cytochrome P450 2C9, sequence (P11712 whole entry): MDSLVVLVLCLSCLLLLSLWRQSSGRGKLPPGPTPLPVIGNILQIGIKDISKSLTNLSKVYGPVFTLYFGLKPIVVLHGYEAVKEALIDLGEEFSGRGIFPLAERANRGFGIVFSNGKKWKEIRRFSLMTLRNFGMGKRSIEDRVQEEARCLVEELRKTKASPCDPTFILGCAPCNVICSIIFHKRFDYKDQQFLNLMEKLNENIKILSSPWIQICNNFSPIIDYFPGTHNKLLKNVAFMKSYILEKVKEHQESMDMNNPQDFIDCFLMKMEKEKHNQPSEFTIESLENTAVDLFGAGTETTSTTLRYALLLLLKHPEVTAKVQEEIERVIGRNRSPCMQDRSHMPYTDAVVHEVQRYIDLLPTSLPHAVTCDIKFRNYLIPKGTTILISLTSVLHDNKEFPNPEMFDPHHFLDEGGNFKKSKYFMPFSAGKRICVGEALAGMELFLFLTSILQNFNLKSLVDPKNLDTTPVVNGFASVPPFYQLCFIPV

Streptococcus = assay: Group A Streptococcus viability loss, dose response, counter-screen for streptokinase expression inhibitor project, luminescence, BacTiterGlo (AID 1915); assay type: functional, organism-based;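 also: potency for reduction of bacterial viability or growth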
[3] = system: Streptococcus sp. 'group A'; assay: growth inhibition of control SK(-) GAS strain, dose response, counter-screen for streptokinase expression inhibitor project, luminescence, kanamycin, BacTiterGlo, confirmation (AID 1900); assay type: functional, organism-based

Cytochrome P450 3A4, sequence (P08684 whole entry): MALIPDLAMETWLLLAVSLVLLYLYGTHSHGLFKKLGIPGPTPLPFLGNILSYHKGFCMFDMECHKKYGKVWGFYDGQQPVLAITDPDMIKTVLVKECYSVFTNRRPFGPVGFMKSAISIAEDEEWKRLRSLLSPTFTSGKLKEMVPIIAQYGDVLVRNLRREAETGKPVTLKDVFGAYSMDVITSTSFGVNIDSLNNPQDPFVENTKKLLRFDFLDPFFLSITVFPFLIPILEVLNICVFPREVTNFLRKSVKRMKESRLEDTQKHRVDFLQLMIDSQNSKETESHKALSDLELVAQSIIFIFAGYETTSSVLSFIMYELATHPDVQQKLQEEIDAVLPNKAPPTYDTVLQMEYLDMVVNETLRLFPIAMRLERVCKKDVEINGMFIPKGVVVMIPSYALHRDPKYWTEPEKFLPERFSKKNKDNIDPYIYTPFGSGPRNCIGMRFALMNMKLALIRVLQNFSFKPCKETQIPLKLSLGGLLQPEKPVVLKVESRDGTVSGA

Cn1cccc1C(=O)N1CCC2(CCN(Cc3ccncc3)CC2)CC1
AC50 (Cytochrome P450 3A4): 12.6 µM (inconclusive)
AC50 (Cytochrome P450 1A2): 15.8 µM (inconclusive)
AC50 (Cytochrome P450 2C19; read-out: AC50): 15.8 µM (inconclusive)

O=C(O)C1CCN(c2ncnc3ccc(-c4ccccc4C(F)(F)F)cc23)CC1
AC50 (Cytochrome P450 3A4): 39.8 µM (inconclusive)

Cc1cc(N2CCN(c3ccccc3)CC2)nc(NCc2ccccc2)n1
EC50 [1]: 0.809 µM (active)
EC50 [2]: > 30 µM (not active)

CCCCN1C(=O)CCC(C(=O)O)C1c1ccccc1 (stereo not drawn)
AC50 (Cytochrome P450 2C19): inconclusive

Cc1cccc(NC(=O)c2cc(=O)c3ccccc3o2)n1
AC50 (Cytochrome P450 3A4): 25.1 µM (inconclusive)
AC50 (Cytochrome P450 2C9): 3.16 µM (inconclusive)
AC50 (Cytochrome P450 2C19; read-out: AC50): 14.1 µM (inconclusive)

CC(C)N(CCNC(=O)C1CCN(S(=O)(=O)N2CCOCC2)CC1)Cc1ccccc1
AC50 (Cytochrome P450 2C9): 20 µM (inconclusive)
AC50 (Cytochrome P450 2C19; read-out: AC50): 39.8 µM (inconclusive)

CC(=O)OC[C@@H]1O[C@H](C/C=N\OCC[C@H]2C=C[C@H](OC(C)=O)[C@@H](COC(C)=O)O2)C=C[C@@H]1OC(C)=O
AC50 (Cytochrome P450 3A4): 3.16 µM (inconclusive)
AC50 (Cytochrome P450 2C19): inconclusive

Cc1ccc(C)c(NC(=O)C2(C)CC3c4ccccc4C2c2ccccc23)c1 (stereo not drawn)
AC50 (Cytochrome P450 2C9): 10 µM (inconclusive)
AC50 (Cytochrome P450 2C19; read-out: AC50): 0.00562 µM (inconclusive)

CC(C)Oc1ccc(CSC(=N)N)cc1
AC50 (Cytochrome P450 1A2): 22.4 µM (inconclusive)
AC50 (Cytochrome P450 2C19; read-out: AC50): 5.62 µM (inconclusive)

N#CCCn1c(=O)c(-c2ccccc2)nc2cnc(N3CCOCC3)nc21
AC50 (Cytochrome P450 1A2): 10 µM (inconclusive)

CCN(c1ccccc1)S(=O)(=O)c1cc(C(=O)Nc2ccc(Br)cc2)ccc1F
EC50 [1]: 2.66 µM (active)
EC50 [2]: > 60 µM (not active)

O=C(NCc1cccnc1)c1ccc(-c2cc(Cl)ccc2Cl)o1
EC50 [1]: 1.72 µM (active)
EC50 [2]: > 30 µM (not active)

O=C(c1cccc(C(F)(F)F)c1)C1CCCN(Cc2ccc(OCCO)cc2)C1 (stereo not drawn)
EC50 [1]: 0.402 µM (active)
EC50 [2]: > 30 µM (not active)

COc1ccccc1CNc1cc(-c2ccccc2Cl)ncn1
AC50 (Cytochrome P450 3A4): 39.8 µM (inconclusive)

COC(=O)[C@@]1(Cc2ccc(F)cc2)[C@H]2c3cc(C(=O)N4CCCC4)n(CCF)c3C[C@H]2CN1C(=O)c1ccccc1
AC50 (Cytochrome P450 1A2): 15.8 µM (inconclusive)

Cc1cc(C(=O)N2CCCC(N3CCN(c4ccccc4C)CC3)C2)n(C)n1 (stereo not drawn)
EC50 [1]: > 30 µM (not active)
EC50 [2]: > 30 µM (not active)

CNc1cc(-c2ccccc2CN(C)C)ncn1
AC50 (Cytochrome P450 1A2): 31.6 µM (inconclusive)

CCCCC(=O)Nc1nnc(SCC(=O)NC2CCCC2)s1
AC50 (Cytochrome P450 2C19; read-out: AC50): 35.5 µM (inconclusive)

O=C(NC1CCCCC1)C1CC=CCC1C(=O)OCC(Cl)=C(Cl)Cl (stereo not drawn)
AC50 (Cytochrome P450 1A2): 25.1 µM (inconclusive)

CCCS(=O)(=O)N1CCCC(C(=O)NCCN2CCC(Cc3ccccc3)CC2)C1 (stereo not drawn)
AC50 (Cytochrome P450 2C9): 5.01 µM (inconclusive)

CC(C)CCn1nnnc1C(c1ccc(F)cc1)N1CCN(C(=O)c2ccco2)CC1 (stereo not drawn)
AC50 (Cytochrome P450 2C9): 11.2 µM (inconclusive)

C=C[C@]1(C)C[C@@H](OC(=O)CSCCN(CC)CC)[C@]2(C)C(C)CC[C@]3(CCC(=O)[C@H]32)[C@@H](C)[C@@H]1O (stereo partly drawn)
EC50 (Streptococcus): 0.182 µM (active)
EC50 [3]: < 0.06 µM (active)

CC(C)(C)c1cc(Br)c(O)c(CN(Cc2cc(C(C)(C)C)cc(Br)c2O)C2CCCCC2)c1
AC50 (Cytochrome P450 1A2): 5.01 µM (inconclusive)
AC50 (Cytochrome P450 2C9): 3.16 µM (inconclusive)

COc1ccc(C(=O)Nc2cc(OC)cc(OC)c2)cc1
AC50 (Cytochrome P450 2C9): 22.4 µM (inconclusive)

CCOc1c2ccc(C(=O)NCCCCc3ccccc3)cc2nn1CC
AC50 (Cytochrome P450 1A2): 6.31 µM (inconclusive)
AC50 (Cytochrome P450 2C19; read-out: AC50): 8.91 µM (inconclusive)

COc1cccc(CNCCNC(=O)c2nonc2N)c1
AC50 (Cytochrome P450 1A2): 39.8 µM (inconclusive)

COc1ccc(Oc2ncc3nc(C)c(=O)n(CCC#N)c3n2)cc1
AC50 (Cytochrome P450 1A2): 25.1 µM (inconclusive)

Cc1ccc2c(c1)C1CN(C)CCC1N2C(=S)NC(=O)c1ccc(Br)cc1 (stereo not drawn)
EC50 [1]: 0.828 µM (active)
EC50 [2]: 41.5 µM (active)

COc1ccccc1CNc1ncnc2ccc(-c3cccnc3)cc12
AC50 (Cytochrome P450 2C19; read-out: AC50): 20 µM (inconclusive)

COc1ccc(/C=N/NC(=O)CCCC(=O)NC2CCCCC2)cc1
AC50 (Cytochrome P450 2C9): 10 µM (inconclusive)
AC50 (Cytochrome P450 2C19; read-out: AC50): 14.1 µM (inconclusive)
